16 compounds from PubChem BioAssay AID248 (DTP/NCI, 2004) can be followed below.

SMILES strings stand for the structures. Where “and” joins values, the source holds several entries; their conditions need not be identical. Identical values can stand only once. Inconclusive results and toxic doses are left out.

The subject of the assay is L1210 leukemia ip in BDF1 mice, survival T/C. Kind of assay: NCI In Vivo Anticancer Drug Screen. Data for tumor model L1210 Leukemia (intraperitoneal) in B6D2F1 (BDF1) mice. To be noted: endpoint: mean survival time, higher = longer survival. Put shortly: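 In this screen, tumor-bearing mice given compound are compared to those given vehicle, and their survival values are reported as a treated-to-control quotient.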

The mark [1] stands for this setting: dose: 100.0 mg/kg/injection, schedule: Q01DX001 (ip), vehicle: carboxymethylcellulose (CMC).
[2] abbreviates: dose: 200.0 mg/kg/injection, schedule: Q01DX001 (ip), vehicle: carboxymethylcellulose (CMC).
The mark [3] stands for this setting: dose: 400.0 mg/kg/injection, schedule: Q01DX001 (ip), vehicle: carboxymethylcellulose (CMC).
Setting [4] is: dose: 100.0 mg/kg/injection, schedule: Q04DX003 (ip), vehicle: Klucel (hydroxypropylcellulose) (HPC).
Where [5] appears, read: dose: 200.0 mg/kg/injection, schedule: Q04DX003 (ip), vehicle: Klucel (hydroxypropylcellulose) (HPC).
Where [6] appears, read: dose: 400.0 mg/kg/injection, schedule: Q04DX003 (ip), vehicle: Klucel (hydroxypropylcellulose) (HPC).
[7] abbreviates: dose: 50.0 mg/kg/injection, schedule: Q01DX009 (ip), vehicle: saline with Tween-80.
Where [8] appears, read: dose: 100.0 mg/kg/injection, schedule: Q01DX009 (ip), vehicle: saline with Tween-80.
Setting [9] is: dose: 100.0 mg/kg/injection, schedule: Q04DX003 (ip), vehicle: saline with Tween-80.
The mark [10] stands for this setting: dose: 200.0 mg/kg/injection, schedule: Q04DX003 (ip), vehicle: saline with Tween-80.
Setting [11] is: dose: 400.0 mg/kg/injection, schedule: Q04DX003 (ip), vehicle: saline with Tween-80.

With `CC(=O)N(C)c1ccc(NC(=O)Nc2ccc(F)cc2)cc1`, the T/C reads like this: under setting [1], 97 % of control; (dose: 100.0 mg/kg/injection, schedule: Q01DX009 (ip), vehicle: carboxymethylcellulose (CMC)) 95 % of control and 103 % of control; (dose: 100.0 mg/kg/injection, schedule: Q04DX002 (ip), vehicle: carboxymethylcellulose (CMC)) 95 % of control and 97 % of control and 90 % of control; (dose: 100.0 mg/kg/injection, schedule: Q04DX003 (ip), vehicle: carboxymethylcellulose (CMC)) 104 % of control; under setting [2], 96 % of control; (dose: 200.0 mg/kg/injection, schedule: Q01DX009 (ip), vehicle: carboxymethylcellulose (CMC)) 101 % of control and 103 % of control. Moreover, the T/C (dose: 200.0 mg/kg/injection, schedule: Q04DX002 (ip), vehicle: carboxymethylcellulose (CMC)) is 93 % of control and 96 % of control and 87 % of control; the T/C (dose: 200.0 mg/kg/injection, schedule: Q04DX003 (ip), vehicle: carboxymethylcellulose (CMC)) is 107 % of control; the T/C under setting [3] is 106 % of control; the T/C (dose: 400.0 mg/kg/injection, schedule: Q01DX009 (ip), vehicle: carboxymethylcellulose (CMC)) is 95 % of control and 101 % of control; the T/C (dose: 400.0 mg/kg/injection, schedule: Q04DX002 (ip), vehicle: carboxymethylcellulose (CMC)) was 97 % of control and 98 % of control and 104 % of control; the T/C (dose: 400.0 mg/kg/injection, schedule: Q04DX003 (ip), vehicle: carboxymethylcellulose (CMC)) was 98 % of control.
`CCSC(C(O)C(O)C(O)CO)n1ccc(N)nc1=O` (stereo unspecified): the T/C (dose: 100.0 mg/kg/injection, schedule: Q01DX005 (ip), vehicle: saline) is 101 % of control and 104 % of control; the T/C (dose: 100.0 mg/kg/injection, schedule: Q01DX009 (ip), vehicle: saline) was 106 % of control and 109 % of control; the T/C (dose: 200.0 mg/kg/injection, schedule: Q01DX005 (ip), vehicle: saline) was 95 % of control and 98 % of control and 101 % of control; the T/C (dose: 200.0 mg/kg/injection, schedule: Q01DX009 (ip), vehicle: saline) was 106 % of control and 98 % of control; the T/C (dose: 400.0 mg/kg/injection, schedule: Q01DX009 (ip), vehicle: saline) is 112 % of control and 102 % of control.
For the compound `Nn1c(=S)[nH][nH]c1=S`, the T/C reads like this: (dose: 100.0 mg/kg/injection, schedule: Q04DX003 (ip), vehicle: saline) 97 % of control; (dose: 200.0 mg/kg/injection, schedule: Q04DX003 (ip), vehicle: saline) 103 % of control; (dose: 400.0 mg/kg/injection, schedule: Q04DX003 (ip), vehicle: saline) 98 % of control.
As for `O=c1oc2ccc(Cl)cc2c2ccccc12`, the T/C was 98 % of control under setting [4], 100 % of control under setting [5] and 104 % of control under setting [6].
As for `O=C1SC2(CCCCC2)SC1=O`, the T/C reads like this: under setting [7], 110 % of control; under setting [8], 113 % of control; under setting [9], 110 % of control; under setting [10], 100 % of control.
Take `Cc1ccc(-n2c(O)c(N=Nc3ccccc3C)c(=O)n(-c3ccccc3)c2=S)cc1`: the T/C was 94 % of control (dose: 100.0 mg/kg/injection, schedule: Q01DX001 (ip), vehicle: Klucel (hydroxypropylcellulose) (HPC)); 104 % of control (dose: 200.0 mg/kg/injection, schedule: Q01DX001 (ip), vehicle: Klucel (hydroxypropylcellulose) (HPC)); 99 % of control (dose: 400.0 mg/kg/injection, schedule: Q01DX001 (ip), vehicle: Klucel (hydroxypropylcellulose) (HPC)).
Consider `C[n+]1ccc(NC(=O)c2ccc(NC(=O)c3ccc(C(=O)Nc4ccc(C(=O)Nc5cc[n+](C)cc5)cc4)c(N)c3)cc2)cc1`, for which the T/C was 97 % of control (dose: 8.1 mg/kg/injection, schedule: Q01DX Z (oral), vehicle: water); 123 % of control (dose: 10.0 mg/kg/injection, schedule: Q01DX Z (ip), vehicle: water); 124 % of control (dose: 12.5 mg/kg/injection, schedule: Q01DX Z (ip), vehicle: water); 112 % of control (dose: 16.3 mg/kg/injection, schedule: Q01DX Z (oral), vehicle: water); 162 % of control (dose: 20.0 mg/kg/injection, schedule: Q01DX Z (ip), vehicle: water); 150 % of control (dose: 25.0 mg/kg/injection, schedule: Q01DX Z (ip), vehicle: water). For the same compound, the T/C was 101 % of control (dose: 32.5 mg/kg/injection, schedule: Q01DX Z (oral), vehicle: water); 91 % of control (dose: 40.0 mg/kg/injection, schedule: Q01DX Z (ip), vehicle: water); 120 % of control (dose: 50.0 mg/kg/injection, schedule: Q01DX Z (ip), vehicle: water); 118 % of control (dose: 62.0 mg/kg/injection, schedule: Q01DX Z (ip), vehicle: carboxymethylcellulose (CMC)); 105 % of control (dose: 65.0 mg/kg/injection, schedule: Q01DX Z (oral), vehicle: water).
On to `[O-]/[N+](=C\c1ccccc1)c1ccc(Cl)cc1`, for which the T/C by setting is: (dose: 75.0 mg/kg/injection, schedule: Q01DX001 (ip), vehicle: saline) 96 % of control; (dose: 150.0 mg/kg/injection, schedule: Q01DX001 (ip), vehicle: saline) 95 % of control; (dose: 300.0 mg/kg/injection, schedule: Q01DX001 (ip), vehicle: saline) 91 % of control.
With `COc1ccc(OC)c(/C=C/c2cccn[n+]2C)c1`, the T/C is, setting by setting: under setting [7], 101 % of control; under setting [8], 114 % of control.
Take `O=S1(=O)CC23CCC2(COC3)C1` (stereo unspecified): the T/C reads like this: (dose: 12.5 mg/kg/injection, schedule: Q04DX003 (ip), vehicle: saline) 97 % of control; (dose: 25.0 mg/kg/injection, schedule: Q04DX003 (ip), vehicle: saline) 94 % of control; (dose: 50.0 mg/kg/injection, schedule: Q04DX003 (ip), vehicle: saline) 92 % of control.
In the case of `O=C(CC(=O)c1ccccc1)Nc1cccc([N+](=O)[O-])c1`, the T/C was 90 % of control under setting [9], 86 % of control under setting [10] and 86 % of control under setting [11].
As for `COc1ccc(N2CCN(c3c(N)cnc4ccccc34)CC2)c(OC)c1`, the T/C under setting [1] was 97 % of control, the T/C under setting [2] was 103 % of control and the T/C under setting [3] is 97 % of control.
On to `O=NN(C(=O)NC1CCCCC1Cl)C1CCCCC1Cl` (stereo unspecified), for which the T/C is 102 % of control (dose: 8.0 mg/kg/injection, schedule: Q01DX001 (ip), vehicle: carboxymethylcellulose (CMC)); 106 % of control (dose: 12.0 mg/kg/injection, schedule: Q01DX001 (ip), vehicle: carboxymethylcellulose (CMC)); 106 % of control (dose: 18.0 mg/kg/injection, schedule: Q01DX001 (ip), vehicle: carboxymethylcellulose (CMC)); 106 % of control (dose: 26.0 mg/kg/injection, schedule: Q01DX001 (ip), vehicle: carboxymethylcellulose (CMC)); 107 % of control (dose: 40.0 mg/kg/injection, schedule: Q01DX001 (ip), vehicle: carboxymethylcellulose (CMC)); 98 % of control (dose: 60.0 mg/kg/injection, schedule: Q01DX001 (ip), vehicle: carboxymethylcellulose (CMC)). Further, the T/C runs as follows: (dose: 93.0 mg/kg/injection, schedule: Q01DX001 (ip), vehicle: carboxymethylcellulose (CMC)) 104 % of control; (dose: 187.0 mg/kg/injection, schedule: Q01DX001 (ip), vehicle: carboxymethylcellulose (CMC)) 102 % of control; (dose: 375.0 mg/kg/injection, schedule: Q01DX001 (ip), vehicle: carboxymethylcellulose (CMC)) 96 % of control.
Turning to `COc1cc(C)c(NC(=O)Oc2ccccc2)c(C)c1`, the T/C by setting is: under setting [9], 89 % of control; under setting [10], 91 % of control; under setting [11], 91 % of control.
Turning to `CCCCCCCCOc1ccc(N(C)C(N)=S)cc1`, the T/C reads like this: under setting [4], 97 % of control; under setting [5], 101 % of control; under setting [6], 106 % of control.
With `Cc1cccc2c(Cl)c3cccc(C)c3nc12`, the T/C is, setting by setting: (dose: 100.0 mg/kg/injection, schedule: Q01DX009 (ip), vehicle: Klucel (hydroxypropylcellulose) (HPC)) 96 % of control; (dose: 100.0 mg/kg/injection, schedule: Q04DX003 (ip), vehicle: other) 95 % of control; (dose: 200.0 mg/kg/injection, schedule: Q01DX009 (ip), vehicle: Klucel (hydroxypropylcellulose) (HPC)) 93 % of control; (dose: 200.0 mg/kg/injection, schedule: Q04DX003 (ip), vehicle: other) 94 % of control; (dose: 400.0 mg/kg/injection, schedule: Q01DX009 (ip), vehicle: Klucel (hydroxypropylcellulose) (HPC)) 102 % of control; (dose: 400.0 mg/kg/injection, schedule: Q04DX003 (ip), vehicle: other) 97 % of control.
